Non-standard residues stand in square brackets, D forms with d. Residues, ends and D or L forms follow the SMILES beside them. ξ: configuration not given here. *: point of attachment. Chg = N[CH](C(=O)O)C1CCCCC1; Nle = CCCC[CH](N)C(=O)O; Cbz = O=C(OCc1ccccc1)*; ξNle = CCCCC(N)C(=O)O; CHN2 = [N-]=[N+]=C*
Tested on: Aβ formation in HGB 717/Swed cells
Assay: Immunoblot assay for Aβ peptide (inhibition of Aβ formation)
Format: cell-based, Human
Conditions: overnight, relative to DMSO control

SMILES | % INHIBITION OF Aβ (concentration of 40 μM) | % INHIBITION OF Aβ (concentration of 75 μM) | also measured
C=C(C)CC(C=O)NC(=O)[C@H](CC(C)C)NC(=O)[C@H](CC(C)C)OCc1ccccc1 (mixture of isomers) [2S-benzoxyvaleric-L-Lene-(H), (2SR)-N-[(2S)-2-benzoxy-4-methylpentanoyl]-L-Leu N-[2-(4-methyl-4-pentenal)]amide] | 85% | – | –
CC(=O)N[C@@H](CC(C)C)C(=O)N[C@@H](CC(C)C)C(=O)NC(C=O)CC1CCCCC1 (mixture of isomers) [Ac-L-L-Cha-(H), N-Ac-L-Leu-L-Leu-DL-cyclohexylalaninal] | – | – | % INHIBITION OF Aβ (concentration of 10 μM): 46%
CCCCC(NC(=O)[C@H](CC(C)C)NC(=O)[C@H](CC(C)C)NC(C)=O)C(=O)C(F)(F)F (mixture of isomers) [Ac-L-L-Nl-(TFMK), (3SR)-N-Ac-L-Leu-L-Leu N-[3-(1,1,1-trifluoro-2-oxoheptyl)]amide] | – | 50% | –
CC=CCC(C=O)NC(=O)[C@H](CC(C)C)NC(=O)[C@H](CC(C)C)NC(C)=O (mixture of isomers) [Ac-L-L-Nlene-(H), (2SR)-N-Ac-L-Leu-L-Leu N [2-(trans-4-hexenal)]amide] | – | 96% | –
CC(C)C[C@H](NC(=O)OCc1ccccc1)C(=O)N[C@@H](Cc1ccccc1)C(=O)NC(C=O)CC1CCCCC1 (mixture of isomers) [Cbz-L-F-Cha-(H), (2SR)-N-Cbz-L-Leu-L-Phe-DL-cyclohexylalaninal] | 100% | – | –
C=C(C)CC(C=O)NC(=O)[C@H](Cc1ccccc1)NC(=O)[C@H](CC(C)C)NC(=O)OCc1ccccc1 (mixture of isomers) [Cbz-L-F-Lene-(H), (2SR)-N-Cbz-L-Leu-L-Phe-N-[2-(4-methyl-4-pentenal)]amide] | – | – | % INHIBITION OF Aβ (concentration of 10 μM): 69%
C=C(C)CC(C=O)NC(=O)[C@H](CC(C)C)NC(=O)[C@H](CC(C)C)NC(=O)OCc1ccccc1 (mixture of isomers) [Cbz-L-L-Lene-(H), (2SR)-N-Cbz-L-Leu-L-Leu N-[2-(4-methyl-4-pentenal)]amide] | – | – | % INHIBITION OF Aβ (concentration of 10 μM): 95%
CCCCC(C=O)N(C)C(=O)[C@H](CC(C)C)NC(=O)[C@H](CC(C)C)NC(=O)OCc1ccccc1 (mixture of isomers) [Cbz-L-L-[CH3]-Nl-(H), N-Cbz-L-Leu-L-Leu-DL-(methyl)norleucinal] | 97% | – | –
CCCCC(C=O)NC(=O)[C@H](CC(C)C)N(C)C(=O)[C@H](CC(C)C)NC(=O)OCc1ccccc1 (mixture of isomers) [Cbz-L-[CH3]-L-Nl-(H), N-Cbz-L-Leu-L-(methyl)Leu-DL-norleucinal] | 77% | – | –
CCCCC(C=O)NC(=O)[C@H](CC(C)C)NC(=O)[C@H](CC(C)C)NC(=O)OCC1c2ccccc2-c2ccccc21 (mixture of isomers) [Fmoc-L-L-Nl-(H), N-Fmoc-L-Leu-L-Leu-DL-norleucinal] | – | – | % INHIBITION OF Aβ (concentration of 50 μM): 89%
CC(=O)NC(CC(C)C)C(=O)NC(CC(C)C)C(=O)NC(C=O)C1CCCCC1 [Ac-L-L-Chg-(H)] (Ac-Leu-Leu-[Chg]-aldehyde; configuration not given here) | – | 99% | –
CCCCC(C#N)NC(=O)[C@H](CC(C)C)NC(=O)[C@H](CC(C)C)NC(C)=O (stereo partly drawn) [Ac-L-L-Nl-(CN), (2S)-N-Ac-L-Leu-L-Leu N-[2-(hexanenitrile)]amide] | – | 94% | –
CCCCC(NC(=O)[C@H](CC(C)C)NC(=O)[C@H](CC(C)C)NC(C)=O)C(=O)C=[N+]=[N-] (stereo partly drawn) [Ac-L-L-Nl-(DM), N-Ac-L-Leu-L-Leu-L-Nle-COCHN2] (Ac-Leu-Leu-[ξNle]-CHN2) | – | 87% | –
CCCCC(C=O)NC(=O)C(CC(C)C)NC(=O)C1CCCN1C(=O)OCc1ccccc1 [Cbz-P-L-Nl-(H), N-Cbz-L-Pro-L-Leu-L-norleucinal] (Cbz-Pro-Leu-[Nle]-aldehyde; configuration not given here) | 80% | – | –

Source: US6015879A, “Peptide and peptide analog protease inhibitors” (Sibia Neurosciences, Inc., priority 1995, dated 2000)
